Patent US11639350B2, “Heteroaryldihydropyrimidine derivatives and methods of treating hepatitis B infections” (Janssen Pharmaceutica NV, priority 2018, dated 2023)
Read-outs that look alike come from different tables or passages of the source.

How the values were obtained:
Type in all cases: cell-based
[1] = system: HBV; assay: HBV inhibitory activity: HBV DNA in the culture medium of HepG2.2.15 cells by q-PCR; conditions: HepG2.2.15 cells, 6 days of compound treatment, HBV DNA in culture medium by q-PCR, highest concentration 10 μM, read-out: EC50
How it was run: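 Supernatant HBV DNA quantified by q-PCR after a 6-day compound exposure, with one mid-course medium change, of HepG2.2.15 cells (stably integrated HBV; 40,000 per well, 2% FBS). Eight-point 3-fold series topped at 10 μM for antiviral EC50; separate plates of 5,000 cells per well with 100 μM top give CC50.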

[2] = system: HepG2.2.15 cells; assay: Cytotoxicity determination in HepG2.2.15 cells (CCK-8); conditions: 6 days of compound treatment, CCK-8, highest concentration 100 μM
How it was run: (§1)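 CC50 is from CCK-8 absorbance (450 nm, 630 nm reference) after 2.5 h with reagent. Before that, compounds were applied for six days, top concentration 100 μM, eight threefold dilutions, one mid-course medium change, to stably HBV-integrated HepG2.2.15 cells plated at 5,000/well in 2% FBS.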

[3] = as above; conditions: human, 6 days of compound treatment, CCK-8, highest concentration 100 μM
How it was run: as §1

[4] = Hepatitis B virus, HepG2.2.15, 144 h

SMILES | EC50 [1] [nM] | CC50 [2] [µM] | EC50 [1, 4] [nM] | CC50 at 6 days [3] [µM]
COC(=O)C1=C(C2CCN(S(=O)(=O)C3CC(C)(C(=O)O)C3)CC2)NC(c2nccs2)=NC1c1ccc(F)cc1Br (single isomer, unassigned) [Compound 410C, trans-3-((4-(6-(2-Bromo-4-fluorophenyl)-5-(methoxycarbonyl)-2-(thiazol-2-yl)-3,6-dihydropyrimidin-4-yl)piperidin-1-yl)sulfonyl)-1-methylcyclobutanecarboxylic Acid] | 16 | 24.7 | – | –
CCOC(=O)C1=C([C@@H]2CCC[C@H](C(=O)O)CC2)NC(c2nccs2)=NC1c1ccc(F)c(F)c1Cl (relative stereo) [Compound 302E, (cis)-4-(−6-(2-Chloro-3,4-difluorophenyl)-5-(ethoxycarbonyl)-2-(thiazol-2-yl)-3,6-dihydropyrimidin-4-1)cycloheptanecarboxylic Acid] | 25 | 14.6 | – | –
COC(=O)C1=C(C2COC(CO)C2)NC(c2nccs2)=NC1c1cccc(F)c1Cl (single isomer, unassigned) [Compound 219E, Methyl 4-(2-chloro-3-fluorophenyl)-6-(5-(hydroxymethyl)-tetrahydrofuran-3-yl)-2-(thiazol-2-yl)-1,4-dihydropyrimidine-5-carboxylate] | 134 | 51.4 | – | –
COC(=O)C1=C(C2CCCC(C(=O)O)CC2)NC(c2nccs2)=NC1c1ccc(F)cc1Cl (single isomer, unassigned) [Compound 95C, 4-(6-(2-Chloro-4-fluorophenyl)-5-(methoxycarbonyl)-2-(thiazol-2-yl)-3,6-dihydropyrimidin-4-yl)cycloheptanecarboxylic Acid] | 117 | 33.1 | – | –
CCOC(=O)C1=C(C2CCN(S(=O)(=O)C3CC(C)(C(=O)O)C3)CC2)NC(c2nccs2)=NC1c1ccc(F)cc1Br (single isomer, unassigned) [Compound 282C, (trans)-3-((4-(−6-(2-Bromo-4-fluorophenyl)-5-(ethoxycarbonyl)-2-(thiazol-2-yl)-3,6-dihydropyrimidin-4-yl)piperidin-1-yl)sulfonyl)-1-methylcyclobutanecarboxylic Acid] | 15 | 15.7 | – | –
COC(=O)C1=C(C2CCN(C)C(=O)C2)NC(c2nccs2)=NC1c1ccc(F)cc1Cl (single isomer, unassigned) [Compound 1B, Methyl 4-(2-chloro-4-fluorophenyl)-6-(1-methyl-2-oxopiperidin-4-yl)-2-(thiazol-2-yl)-1,4-dihydropyrimidine-5-carboxylate] | 96 | 13.6 | – | –
CCOC(=O)C1=C([C@H]2CCC[C@H](C(=O)O)CC2)NC(c2nccs2)=NC1c1ccc(F)c(F)c1Cl (single isomer, unassigned) [Compound 302F, (trans)-4-(−6-(2-Chloro-3,4-difluorophenyl)-5-(ethoxycarbonyl)-2-(thiazol-2-yl)-3,6-dihydropyrimidin-4-yl)cycloheptanecarboxylic Acid] | 37 | 10.3 | – | –
COC(=O)C1=C(C2CCN(S(=O)(=O)C3CCC(C)(C(=O)O)CC3)CC2)NC(c2nccs2)=NC1c1ccc(F)c(F)c1Cl (single isomer, unassigned) [Compound 210B, (cis)-4-((4-(6-(2-chloro-3,4-difluorophenyl)-5-(methoxycarbonyl)-2-(thiazol-2-yl)-3,6-dihydropyrimidin-4-yl)piperidin-1-yl)sulfonyl)-1-methylcyclohexanecarboxylic Acid] | 44 | 9.7 | – | –
COC(=O)C1=C(C2CCC(NS(C)(=O)=O)C2)NC(c2nccs2)=NC1c1cccc(F)c1Cl (single isomer, unassigned) [Compound 61G, Methyl 4-(2-chloro-3-fluorophenyl)-6-(3-(methylsulfonamido)-cyclopentyl)-2-(thiazol-2-yl)-1,4-dihydropyrimidine-5-carboxylate] | 423 | > 10 | – | –
CCOC(=O)C1=C(C2CCN(S(=O)(=O)[C@H]3C[C@@](C)(C(=O)O)C3)CC2)NC(c2nccs2)=NC1c1ccc(F)cc1Cl (stereo partly drawn) [Compound 272B, (cis)-3-((4-(6-(2-Chloro-4-fluorophenyl)-5-(ethoxycarbonyl)-2-(thiazol-2-yl)-3,6-dihydropyrimidin-4-yl)piperidin-1-yl)sulfonyl)-1-methylcyclobutanecarboxylic Acid] | 47 | 20.1 | – | –
COC(=O)C1=C([C@H]2CC[C@H](NS(C)(=N)=O)CC2)NC(c2nccs2)=NC1c1ccc(F)cc1Cl (single isomer, unassigned) [Compound 287D, Methyl 4-(2-chloro-4-fluorophenyl)-6-((trans)-4-(methylsulfonoimidamido)cyclohexyl)-2-(thiazol-2-yl)-1,4-dihydropyrimidine-5-carboxylate] | 67 | 60 | – | –
CCOC(=O)C1=C([C@H]2CC[C@H](C(=O)O)CO2)NC(c2nccs2)=NC1c1ccc(F)cc1Cl (single isomer, unassigned) [Compound 363H, (trans)-6-(6-(2-Chloro-4-fluorophenyl)-5-(ethoxycarbonyl)-2-(thiazol-2-yl)-3,6-dihydropyrimidin-4-yl)tetrahydro-2H-pyran-3-carboxylic Acid] | 650 | > 100 | – | –
COC(=O)C1=C(C2CCC(NC(C)=O)C2)NC(c2nccs2)=NC1c1cccc(F)c1Cl (single isomer, unassigned) [Compound 62D, Methyl 6-(3-acetamidocyclopentyl)-4-(2-chloro-3-fluorophenyl)-2-(thiazol-2-yl)-1,4-dihydropyrimidine-5-carboxylate] | 892 | 75.1 | – | –
COC(=O)C1=C(C2CCNC(=O)C2)NC(c2nccs2)=NC1c1ccc(F)cc1Cl (single isomer, unassigned) [Compound 3A, Methyl 4-(2-chloro-4-fluorophenyl)-6-(2-oxopiperidin-4-yl)-2-(thiazol-2-yl)-1,4-dihydro-pyrimidine-5-carboxylate] | – | 35.9 | 126 | –
COC(=O)C1=C(C2C[C@@H]3CN(S(C)(=O)=O)C[C@@H]3C2)NC(c2nccs2)=NC1c1ccc(F)cc1Cl (single isomer, unassigned) [Compound 176D, Methyl 4-(2-chloro-4-fluorophenyl)-6-((cis)-2-(methylsulfonyl)-octahydrocyclopenta[c]pyrrol-5-yl)-2-(thiazol-2-yl)-1,4-dihydropyrimidine-5-carboxylate] | – | 11 | 700 | –
COC(=O)C1=C(C2COC(CO)C2)NC(c2nccs2)=NC1c1cccc(F)c1Cl (single isomer, unassigned) [Compound 219A, Methyl 4-(2-chloro-3-fluorophenyl)-6-(5-(hydroxymethyl)-tetrahydrofuran-3-yl)-2-(thiazol-2-yl)-1,4-dihydropyrimidine-5-carboxylate] | 192 | 35.3 | – | –
COC(=O)C1=C(C2CCN(S(=O)(=O)C3CCC(C)(C(=O)O)CC3)CC2)NC(c2nccs2)=NC1c1ccc(F)c(F)c1Cl (single isomer, unassigned) [Compound 210A, (trans)-4-((4-(6-(2-chloro-3,4-difluorophenyl)-5-(methoxycarbonyl)-2-(thiazol-2-yl)-3,6-dihydropyrimidin-4-yl)piperidin-1-yl)sulfonyl)-1-methylcyclohexanecarboxylic Acid] | 24 | 6 | – | –
COC(=O)C1=C([C@H]2CC[C@H](NS(C)(=O)=O)CC2)NC(c2ncc(F)cc2F)=NC1c1ccc(F)c(F)c1Cl (some centres unmarked) [Compound 298B] | 17 | 13.2 | – | –
COC(=O)C1=C([C@H]2CCC[C@@H](CO)C2)NC(c2nccs2)=NC1c1ccc(F)cc1Cl (single isomer, unassigned) [Compound 173C, Methyl 4-(2-chloro-4-fluorophenyl)-6-((cis)-3-(hydroxymethyl)cyclohexyl)-2-(thiazol-2-yl)-1,4-dihydropyrimidine-5-carboxylate] | 107 | 9.9 | – | –
COC(=O)C1=C(C2CCC(NS(C)(=O)=O)C2)NC(c2nccs2)=NC1c1cccc(F)c1Cl (single isomer, unassigned) [Compound 61B, Methyl 4-(2-chloro-3-fluorophenyl)-6-(3-(methylsulfonamido)-cyclopentyl)-2-(thiazol-2-yl)-1,4-dihydropyrimidine-5-carboxylate] | 333 | > 20 | – | –
COCCOCCOCCS(=O)(=O)N1CCC(C2=C(C(=O)OC)C(c3ccc(F)cc3Cl)N=C(c3nccs3)N2)CC1 (centres unmarked) [Compound 459, Methyl 4-(2-chloro-4-fluorophenyl)-6-(1-((2-(2-(2-methoxyethoxy)ethoxy)ethyl)sulfonyl)piperidin-4-yl)-2-(thiazol-2-yl)-1,4-dihydropyrimidine-5-carboxylate] | – | – | 41 | 93.5
COC(=O)C1=C(C2CCN(S(=O)(=O)C3COC3)CC2)NC(c2nccs2)=NC1c1ccc(F)cc1Cl (single isomer, unassigned) [Compound 110B, Methyl 4-(2-chloro-4-fluorophenyl)-6-(1-(oxetan-3-ylsulfonyl)-piperidin-4-yl)-2-(thiazol-2-yl)-1,4-dihydropyrimidine-5-carboxylate] | – | – | 798 | > 10
